Test results as given in PubChem BioAssay AID1902 (Broad Institute, 2009).
pEC50: −log10 of the molar value. The source made the active and inactive calls.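 Rule for the calls: active = EC50 no more than a set limit of log units above the highest dose; inactive = the rest.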

The compounds below were run against S. pyogenes SKKanGAS, kanamycin survival, BacTiterGlo, 6 h (assay: SKKanGAS survival reduction under kanamycin, dose response, streptokinase promoter inhibitor project, SKKanGAS strain, luminescence, dose confirmation (AID 1902);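 note: lower survival reflects blocked streptokinase promoter driving kanamycin resistance gene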).

Compound	pEC50	EC50
COC(=O)C1N2C(=O)[C@@H](NC(=O)COc3ccccc3)[C@H]2SC1(C)C (some centres not stated)	6.42	
CCOc1ccc(NC(=O)c2c(NC(=O)CNCCN3CCOCC3)sc3c2CCC3)cc1	5.96	
C/C(=N/Nc1cc(-c2ccccc2)nc(-c2ccccc2)n1)c1ccc(O)cc1	5.68	
O=c1[nH]c(-c2ccccn2)nc2sc(-c3ccccc3)cc12	6.58	
[O-][n+]1cccc2c(Br)cc(Br)c(O)c21	6.26	
Fc1cccc2sc(Nc3nnc(-c4ccco4)o3)nc12	6.51	
COc1ccc(CCNC(=O)CSc2nncn2N)cc1OC		> 15 µM (inactive)
CCN(CC)c1ccc(/C=N/NC(=O)CCC(=O)NCc2ccccc2)c(O)c1	5.47	
Nc1ccc(-c2nc3nc(N)nc(N)c3nc2-c2ccc(N)cc2)cc1	5.42	
Cc1cc(C(C)(C)C)cc(C)c1COC(=O)c1cccnc1	5.49	
COc1ccccc1C(=O)Nc1nnc(SCC(=O)NCC2CCCO2)s1 (configuration not stated)		> 15 µM (inactive)
COc1ccc(-c2nc(NC(=O)C3CC(=O)N(c4ccc5c(c4)OCCO5)C3)sc2C)cc1 (configuration not stated)	4.92	
CCCOc1cccc(-c2cc(C(=O)N/N=C/c3ccccn3)c3ccccc3n2)c1	5.73	
Fc1ccccc1N=C1NN=C(c2ccccc2)CS1	5.09	
O=C(N/N=C/c1ccccn1)c1ccc(Cl)c(Cl)c1	5.16	
CC(=O)OCC1=C(C(=O)O)N2C(=O)C(NC(=O)CCn3nc(C)c(Cl)c3C)C2SC1 (configuration not stated)	5.99	
CS(=O)(=O)c1ccc2nc(NC(=O)c3ccc(NS(=O)(=O)c4cccc([N+](=O)[O-])c4)cc3)sc2c1	5.79	
COc1ccc2nc(-n3c(C)ccc3C)sc2c1		> 15 µM (inactive)
O=c1cc(/N=C/c2coc3c(ccc4ccccc43)c2=O)[nH]c(=S)[nH]1	5.82	
O=C(c1cc(-c2ccccc2)n[nH]1)N1CCc2c([nH]c3ccccc23)C1c1ccccn1 (configuration not stated)	5.28	
CC(C)C[C@H](NC(=O)c1[nH]cnc1C(=O)N[C@@H](C)C(=O)OC(C)(C)C)C(=O)OCc1ccccc1	5.15	
COc1cc(/C(C)=C/c2ccccc2)c2c(c1)oc1ccccc12	5.39	
CO[C@@]1(NC(=O)Cc2cccs2)C(=O)N2C(C(=O)O)=C(COC(N)=O)CS[C@@H]21	5.48	
CC(C)Oc1ccc(C(=O)Nc2nc3ccccc3[nH]2)cc1	5.85	
COc1ccc2c(c1)C(=NNc1ccc(C(=O)O)cc1)c1cc(OC)ccc1-2	5.33	
Cc1cccc(N2CCN(C(=O)C34CC5CC(CC(C5)C3)C4)CC2)c1C	5.25	

Compound	pEC50	EC50
O=c1c2ccccc2c(C=Nc2ccc(O)cc2)c(O)n1Cc1ccccc1	5.21	
CCCCn1c(NS(=O)(=O)c2ccccc2)c(S(=O)(=O)c2ccc(C)cc2)c2nc3ccccc3nc21	5.46	
C[n+]1c(-c2ccccc2)c2cc(N)ccc2c2ccc(N)cc21	5.81	
CC1CCN(c2nc(N3CCCCC3)nc(N3CCCCC3)n2)CC1	5.52	
CCC(=O)N1N=C(c2c(O)n(C)c(=O)n(C)c2=O)CC1c1ccccc1 (configuration not stated)	5.62	
O=C(N/N=C/c1cc(Br)cc(Br)c1O)c1ccncc1	6.18	
COc1ccc(OC)c(/C=N/n2c(-c3n[nH]c4c3CCC4)n[nH]c2=S)c1		> 15 µM (inactive)
CN1CCN(C2=Cc3ccc(Cl)cc3Sc3ccc(F)cc32)CC1	5.34	
Cc1onc(-c2ccccc2)c1C(=O)NNC(=S)NC(=O)/C=C/c1cccs1	6.08	
Cc1ccc(-c2nn(-c3ccccc3)cc2/C=N/NC(=O)CSc2nnc(C)n2-c2ccccc2)cc1	5.01	
O=C(N/N=C/c1cc([N+](=O)[O-])ccc1O)c1cccc(N2CCCC2=O)c1	5.92	
COc1ccc(C(=O)N2CCCC(Nc3ccc(C)c(C)c3)C2)cc1F (configuration not stated)		> 15 µM (inactive)
O=C(COc1ccc(-c2ccccc2)cc1)N/N=C/c1cc(O)ccc1Br	5.64	
CC(Nc1nc(-c2ccccc2O)nc2ccccc12)c1ccccc1 (configuration not stated)	5.06	
O=C(CNc1ccc2ccccc2c1)N/N=C/c1ccc([N+](=O)[O-])o1	4.85	
COc1cc(OC)cc(-c2cc3nc4c(c(N5CCN(c6ncccn6)CC5)n3n2)CCCC4)c1	5.20	
COCc1cc(=O)[nH]c(Nc2nc3ccccc3o2)n1	5.58	
Oc1c(CN2CCN(c3ccccc3)CC2)cc(Br)c2cccnc12	5.78	
O=C(CCc1ccccc1)NNC(=S)NC(=O)c1ccccc1	5.74	
COc1cc(NC(=O)c2cc3nc(-c4ccccc4)cc(-c4ccccc4)n3n2)cc(OC)c1OC	5.00	
CCCOc1ccc(C(=O)NNC(=S)NC(=O)c2cc(-c3ccc(Cl)cc3)nc3ccccc23)cc1	> 7.22	
Cc1nnc(SCC2=C(C(=O)O)N3C(=O)C(NC(=O)c4cc(F)c(F)cc4Cl)C3SC2)s1 (configuration not stated)	6.27	
COc1cccc(-c2cc(C(F)(F)F)nc(N3CCC(C)CC3)n2)c1	5.15	
Cc1[nH]nc(Nc2ccc(C(C)C)cc2)c1[N+](=O)[O-]	4.86	
CCCCCCCCCCOC(=O)Cn1c(COc2ccc(C)cc2)[n+](C)c2ccccc21	5.25	
CCCOC(=O)c1ccc(Oc2cn[nH]c2-c2ccc(O)cc2O)cc1	5.48	
